Tests used:
[1] = system: recombinant ASFV genotype II Georgia virus, GeorgiaDMGFB; type: cell-based, African swine fever virus
ASFV Georgia 2007/1 = experiment: microbe, parasite or virus in culture; type: cell-based; settings: African swine fever virus, PBMC, 72 h, read-out: EC50 Georgia 2007/1
ASFV KAB6/2 = experiment: microbe, parasite or virus in culture; type: cell-based; settings: African swine fever virus, PBMC, 72 h, read-out: EC50 KAB6/2
ASFV BOT 1/99 = experiment: microbe, parasite or virus in culture; type: cell-based; settings: African swine fever virus, PBMC, 72 h, read-out: EC50 BOT P1/99
ASFV Magadi w/hog 9 = experiment: microbe, parasite or virus in culture; type: cell-based; settings: African swine fever virus, PBMC, 72 h, read-out: EC50 Magadi w/hog 9
[2] = system: ASFV strain Georgia 2007/1; settings: pig, in vivo
[3] = system: ASFV strain Georgia 2007/1; settings: pig, in vivo, po, 30 mg/kg
[4] = pig, in vivo
porcine kidney cells = settings: pig
in vivo = settings: pig
in vitro = settings: pig, CC50 (50% cytotoxic concentration)

SMILES: CC(C)(C)C(=O)OCOP1(=O)CO[C@@H](Cn2ccc(N)nc2=O)CO1 (stereo partly drawn) [Compound 1, Pivaloyloxymethyl ester of cHPMPC]
- efficacy compared to cHPMPC [1]: intermediate

SMILES: CC(C)OC(=O)OCOP1(=O)CO[C@@H](Cn2ccc(N)nc2=O)CO1 (stereo partly drawn) [Compound 2, Isopropyloxycarbonyloxymethyl ester of cHPMPC]
- efficacy compared to cHPMPC [1]: intermediate

SMILES: CCCCCCCCCCCCCCCCOCCCOP1(=O)CO[C@@H](Cn2ccc(N)nc2=O)CO1 (stereo partly drawn) [Compound 3, Hexadecyloxypropyl ester of cHPMPC]
- efficacy compared to cHPMPC [1]: greatly increased efficacy
- selectivity indices [1]: thousands

SMILES: CCCCCCCCCCCCCCCCCCOCCOP1(=O)CO[C@@H](Cn2ccc(N)nc2=O)CO1 (stereo partly drawn) [Compound 4, Octadecyloxyethyl ester of cHPMPC]
- efficacy compared to cHPMPC [1]: greatly increased efficacy
- selectivity indices [1]: thousands

SMILES: CC(C)OC(=O)[C@H](C)NP1(=O)CO[C@@H](Cn2ccc(N)nc2=O)CO1 (stereo partly drawn) [Compound 5, Isopropyl L-alaninyl cHPMPC]
- efficacy compared to cHPMPC [1]: intermediate

SMILES: Nc1ccn(C[C@H]2COP(=O)(O)CO2)c(=O)n1 [cHPMPC, cyclic cidofovir]
- EC50 (ASFV Georgia 2007/1): 310 ± 170 nM
- EC50 (ASFV KAB6/2): 590 ± 80 nM
- EC50 (ASFV BOT 1/99): 300 ± 200 nM
- EC50 (ASFV Magadi w/hog 9): 110 ± 50 nM
- pigs survived until the end of the study (day 27 post ASFV challenge) with no ASF disease [2]: 2 pigs
- ASFV genome copies in blood on termination days compared to control pigs ([2]; po, 30 mg/kg): reduced
- ASFV genome copies in swab samples on termination days compared to control pigs ([2]; po, 30 mg/kg): reduced
- median survival ([2]; po, 30 mg/kg): 19.5 days
- pigs euthanized at moderate severity humane endpoint on day 6 showing reduced ASF disease ([2]; po, 30 mg/kg): 2 pigs
- pigs euthanized at moderate severity humane endpoint on day 19 and day 20 with delayed and reduced ASF disease ([2]; po, 30 mg/kg): 2 pigs
- ASF viraemia [3]: significantly reduced
- ASF viral genome copies in organs (lungs, spleens, lymph nodes) compared to placebo [3]: significantly reduced
- median survival / median day of death [3]: 8 days
- concentration above which mNeon Green expression was not observed [1]: > 0.05 µM
- other adverse events [4]: No other adverse events were recorded
- tolerability [4]: well tolerated
- injection site observation 1 hour post intravenous dosing ([4]; iv, 5 mg/kg): redness at injection site was observed in all pigs
- injection site observation 4 hour post intravenous administration ([4]; iv, 5 mg/kg): no injection site reactions were observed
- CC50 (porcine kidney cells): 59000 nM
- half-life (in vivo; iv, 5 mg/kg): 3.31 h
- AUC (in vivo; iv, 5 mg/kg, AUC, analyte VV03-0035): 71.6 µM·h
- AUC (in vivo; iv, 5 mg/kg, exposure (AUC) of VV03-0035, range across pigs): 58 to 95.4 µM·h
- half-life (in vivo; po, 25 mg/kg): 3.51 h
- AUC (in vivo; po, 25 mg/kg, AUC, analyte VV03-0035): 11.6 µM·h
- AUC (in vivo; po, 25 mg/kg, exposure (AUC) of VV03-0035, range across pigs): 2.32 to 23.7 µM·h
- CC50 (in vitro): 47000 nM
